In BindingDB's records for patent US9624198 (Bayer Pharma Aktiengesellschaft, 2017):
pIC50: −log10 of the molar value.

Target: T1, Alpha-2C adrenergic receptor (Homo sapiens, UniProt P18825)
T1 sequence (P18825 whole entry): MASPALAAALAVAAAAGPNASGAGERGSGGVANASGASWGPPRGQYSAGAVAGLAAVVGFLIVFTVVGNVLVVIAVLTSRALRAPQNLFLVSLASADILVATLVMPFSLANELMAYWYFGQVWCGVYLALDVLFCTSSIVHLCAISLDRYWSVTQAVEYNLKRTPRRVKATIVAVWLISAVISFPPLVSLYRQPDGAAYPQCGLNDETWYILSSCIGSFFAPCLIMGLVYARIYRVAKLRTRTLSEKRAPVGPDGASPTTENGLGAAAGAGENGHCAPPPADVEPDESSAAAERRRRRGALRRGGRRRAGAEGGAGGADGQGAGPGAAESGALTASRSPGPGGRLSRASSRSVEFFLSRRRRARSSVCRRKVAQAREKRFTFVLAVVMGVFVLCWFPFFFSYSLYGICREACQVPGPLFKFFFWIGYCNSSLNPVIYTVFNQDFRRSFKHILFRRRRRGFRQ
Test: In Vitro Assay
Experimental: Antagonism against the adrenoreceptor α1A was tested using a recombinant human α1A receptor CHO cell line which additionally also recombinantly expresses mtAeq (mitochondrial aequorin). Antagonism against the adrenoreceptor α2A was tested using a recombinant human α2A-Gα16 receptor fusion protein CHO cell line (PerkinElmer Life Sciences) which additionally also recombinantly expresses mtAeq. Antagonism against the adrenoreceptor α2B was tested using a recombinant human α2B receptor CHO cell line (PerkinElmer Life Sciences) which additionally also recombinantly expresses mtAeq. Antagonism against the adrenoreceptor α2C was tested using a recombinant human α2C receptor CHO cell line which additionally also recombinantly expresses a chimaric G protein (Gαqi3) and mtOb (mitochondrial obelin).The cells were cultivated at 37° C. and 5% CO2 in Dulbecco's modified Eagle's Medium/NUT mix F12 with L-glutamine which additionally contains 10% (v/v) inactivated foetal calf serum, 1 mM sodium pyruvate, 0.9 mM sodium bicarbonate, 50 U/ml penicillin, 50 μg/ml streptomycin, 2.5 μg/ml amphotericin B and 1 mg/ml Geneticin. The cells were passaged with enzyme-free Hank's-based cell dissociation buffer. All cell culture reagents used were from Invitrogen (Carlsbad, USA).

## O=C(c1ccc(N2CC3(COC3)C2)nc1)N1CCC(N2CCc3ccccc3C2)CC1 [US9624198, 10]
  pIC50: 7.96
